pIC50: −log10 of the molar value. Numbered stars: 1 amine (or outer) side, 2 acyl side, 3 side chain; on linkers, the order of the positions; unused ones are H or OH. Square brackets hold non-standard residues; d marks the D form. Peptide text beside a SMILES is read from it. ξ: configuration not given here. X3 = C[C@@H](OP(=O)(O)OCC[C@@H](O)CO)[C@H](N[*:1])C(=O)[*:2]; X20 = O=C([C@H](Cc1cncn1CC[C@@H](O)CO)N[*:1])[*:2]; X13 = COP(=O)(O)O[C@H](C)[C@H](N[*:1])C(=O)[*:2]; pT = C[C@@H](OP(=O)(O)O)[C@H](N)C(=O)O; ξP = O=C(O)C1CCCN1
Molecular target: Serine/threonine-protein kinase PLK1 (Homo sapiens, UniProt P53350)
Assay: Inhibition Assay
Details: pH 8; 25 °C
Description: The evaluation of Plk1 PBD binding affinities of the synthetic compounds using an ELISA-based 96-well assay.

Sequence of Serine/threonine-protein kinase PLK1 (P53350 whole entry): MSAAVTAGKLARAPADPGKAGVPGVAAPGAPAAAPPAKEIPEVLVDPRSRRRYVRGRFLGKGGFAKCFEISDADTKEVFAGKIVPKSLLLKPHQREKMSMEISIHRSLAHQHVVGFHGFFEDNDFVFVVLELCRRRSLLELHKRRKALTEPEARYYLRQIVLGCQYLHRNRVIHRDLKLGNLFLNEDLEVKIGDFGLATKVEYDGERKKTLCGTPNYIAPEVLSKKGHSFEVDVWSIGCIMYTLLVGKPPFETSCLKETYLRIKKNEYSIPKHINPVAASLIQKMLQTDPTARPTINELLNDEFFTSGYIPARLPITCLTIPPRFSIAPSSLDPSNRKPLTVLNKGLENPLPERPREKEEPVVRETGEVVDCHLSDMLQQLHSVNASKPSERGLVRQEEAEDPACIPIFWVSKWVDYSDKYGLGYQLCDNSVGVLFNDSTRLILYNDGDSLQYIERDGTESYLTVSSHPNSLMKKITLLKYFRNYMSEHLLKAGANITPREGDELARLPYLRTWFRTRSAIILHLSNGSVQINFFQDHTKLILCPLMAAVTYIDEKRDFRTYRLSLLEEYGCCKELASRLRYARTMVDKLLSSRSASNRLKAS

**Q.** How did the pIC50 turn out when `COP(=O)(O)O[C@H](C)[C@H](NC(=O)[C@H](CO)NC(=O)[C@H](Cc1cnc[nH]1)NC(=O)[C@H](CC(C)C)NC(=O)C1CCCN1C(C)=O)C(N)=O` (stereo partly drawn) [Phosphodiester analog, 3a] (Ac-[ξP]LHS[X13]-NH2) was run?
**A.** < 3.70

**Q.** With `CC(=O)N1CCCC1C(=O)N[C@@H](CC(C)C)C(=O)N[C@@H](Cc1cnc[nH]1)C(=O)N[C@@H](CO)C(=O)N[C@H](C(N)=O)[C@@H](C)OP(=O)(O)OCC[C@@H](O)CO` (stereo partly drawn) [Phosphodiester analog, 3b] (Ac-[ξP]LHS[X3]-NH2) as the compound, how does the pIC50 read?
**A.** < 3.70

**Q.** `CC(=O)N1CCCC1C(=O)N[C@@H](CC(C)C)C(=O)N[C@@H](Cc1cncn1CC[C@@H](O)CO)C(=O)N[C@@H](CO)C(=O)N[C@H](C(N)=O)[C@@H](C)OP(=O)(O)O` (stereo partly drawn) [Phosphodiester analog, 4b] (Ac-[ξP]L[X20]S[pT]-NH2) was tested. Which pIC50 did it give?
**A.** < 3.70
